Results on one sequence are retold here after patent US20080311126A1, “Antisense Oligonucleotides Directed to Ribonucleotide Reducatase R2 and Uses Thereof in Combination Therapies for the Treatment of Cancer” (Genesense Technologies, Inc, priority 2004, published 2008).

Format in all cases: in vivo
Data set [1] concerns PC-3 human prostatic cancer cells. Kind of data set: PC-3 prostatic tumour xenograft in SCID mice. The settings on record: FIG. 14A; SEQ ID NO:1 10 mg/kg 18 times; mitoxantrone 2 mg/kg once. The method, then:
In both experiments, PC-3 human prostatic cancer cells (1×10^7 cells in 100 μl of PBS) were subcutaneously injected into the right flank of 6-7 weeks old male SCID mice. After the size of tumour reached an approximate volume of 50 mm^3, 14 days post tumour cell injection, SEQ ID NO:1 was administered by bolus infusion into the tail vein every other day at 10 mg/kg 18 times (FIG. 14A) or 17 times (FIG. 14B), respectively. Control animals received saline alone for the same period. Antitumour effect of SEQ ID NO:1 was further compared to that of mitoxantrone (Novantrone®) alone or in combination. Mitoxantrone was administered intravenously once at the beginning of the treatments at a dose of 2 mg/kg (FIG. 14A) or once a week for four weeks at a reduced dose of 0.8 mg/kg (FIG. 14B). All treatments were stopped at day 50 (FIG. 14A) or 48 (FIG. 14B), respectively. A day after the last treatment, tumours were excised from the animals and their weights were measured.

Data set [2] deals with SK-OV-3 human ovary adenocarcinoma cells. Kind of data set: SK-OV-3 ovary tumour xenograft in CD-1 nude mice. The protocol: SK-OV-3 human ovary adenocarcinoma cells (1×10^7 cells in 100 μl of PBS) were subcutaneously injected into the right flank of 6-7 weeks old female CD-1 nude mice. After the size of tumour reached an approximate volume of 100 mm^3, 6 days post tumour cell injection, SEQ ID NO:1 was administered by bolus infusion into the tail vein every other day at 10 mg/kg 17 times. Control animals received saline alone for the same period. Antitumour effect of SEQ ID NO: 1 was further compared to that of taxol or cisplatin alone or in combination. Taxol was administered intravenously once a week for first three weeks and intraperitoneally once a week for next two weeks at a dose of 10 mg/kg. Cisplatin was administered intravenously once a week for first three weeks and intraperitoneally once a week for next two weeks at a dose of 4 mg/kg. All treatments were stopped at day 40. Antitumour activities were estimated by the inhibition of tumour volume, which was measured with caliper. Each point represents mean tumour volume calculated from 9 animals per experimental group.

Data set [3] has as its system BxPC-3 human pancreatic carcinoma cells. Kind of data set: BxPC-3 gemcitabine resistant pancreatic carcinoma xenograft in CD-1 nude mice. The method, then:
BxPC-3 human pancreatic carcinoma cells (3×10^6 cells in 100 μl of PBS) were subcutaneously injected into the right flank of 6-7 weeks old female CD-1 nude mice. BxPC-3 is a gemcitabine resistant call line. After the size of tumour reached an approximate volume of 100 mm^3, 21 days post tumour cell injection, SEQ ID NO:1 was administered by bolus infusion into the tail vein every other day at 10 mg/kg 17 times. Control animals received saline alone for the same period. Antitumour effect of SEQ ID NO:1 was further compared to that of Gemcitabine. Gemcitabine was administered intravenously every three days at a dose of 100 mg/kg. Antitumour activities were estimated by the inhibition of tumour volume, which was measured with caliper. Each point represents mean tumour volume calculated from 10 animals per experimental group. […] As expected, treatment with Gemcitabine during the same period was ineffective against Gemcitabine-resistant tumour (FIGS. 19A & B).

The test system of data set [4] is Hela S3 human cervix epitheloid carcinoma cells. Kind of data set: Hela S3 hydroxyurea resistant cervix carcinoma xenograft in SCID mice. The method, then:
Hela S3 human cervix epitheloid carcinoma cells (5×10^5 cells in 100 μl of PBS) were subcutaneously injected into the right flank of 6-7 weeks old female SCID mice. Hela S3 is a hydroxyurea resistant cell line. After the size of tumour reached an approximate volume of 100 mm^3, 3 days post tumour cell injection, SEQ ID NO:1 was administered by bolus infusion into the tail vein every other day at 10 mg/kg 6 times. Control animals received saline alone for the same period. Antitumour effect of SEQ ID NO:1 was further compared to that of Hydroxyurea or Cisplatin alone or in combination. Hydroxyurea was administered intraperitoneally every day at a dose of 250 mg/kg for 10 days. Cisplatin was administered intravenously once a week for three weeks at a dose of 4 mg/kg. Antitumour activities were estimated by the inhibition of tumour volume, which was measured with caliper. Each point represents mean tumour volume calculated from 10 animals per experimental group. […] As expected, treatment with Hydroxyurea during the same period was ineffective against Hydroxyurea-resistant tumour.

Data set [5] relates to MDA-MB435-To.1 human Taxol-resistant breast adenocarcinoma cells. Kind of data set: MDA-MB435-To.1 Taxol-resistant breast adenocarcinoma, fat pad injection in SCID mice. Particulars: for Tumour weight as % of saline control: MDA-MB435-To.1 (breast), Taxol resistance. Further details: Tumour weight as % of saline control: concentration or dose not given beside the values. The method, then:
MDA-MB435-To.1 human Taxol-resistant breast adenocarcinoma cells (4×10^6 cells in […] of PBS) were injected into the fat pad (inside of right leg) of 6-7 weeks old female SCID mice. After the size of tumour reached an approximate volume of 100 mm^3, 20 days post tumour cell injection, SEQ ID NO:1 was administered by bolus infusion into the tail vein every other day at 10 mg/kg 15 times. Control animals received saline alone for the same period. Antitumour effect of SEQ ID NO:1 was further compared to that of Cisplatin or Taxol alone. Cisplatin was administered intravenously once a week for four weeks at a dose of 4 mg/kg. Taxol was administered intravenously once a week for four weeks at a dose of 20 mg/kg.
Antitumour activities were estimated by the inhibition of tumour volume, which was measured with caliper. Bach point represents mean tumour volume calculated from 9-10 animals per experimental group. […] As expected, treatment with Taxol during the same period was ineffective against Taxol-resistant tumour.
MDA-MB435-To.1 human Taxol-resistant breast adenocarcinoma cells (4×10^6 cells in 100 μl of PBS) were injected into the fat pad (inside of right leg) of 6-7 weeks old female CB-17 SCID mice. After the size of tumour reached an approximate volume of 100 mm^3, 17 days post tumour cell injection, SEQ ID NO:1 was administered by bolus infusion into the tail vein every other day at 10 mg/kg. Control animals received saline alone for the same period. Antitumour effect of SEQ ID NO:1 was compared to that of Cisplatin alone and in combination. Cisplatin was administered intravenously once a week for four weeks at a dose of 4 mg/kg. Antitumour activities were estimated by the inhibition of tumour volume, which was measured with caliper. Each point represents mean tumour volume calculated from 10 animals per experimental group. At the end of the study the animals were sacrificed and tumours weighed.

In another data set the test system is Human Lung Carcinoma. Kind of data set: Tumour growth assay, human lung carcinoma in CD-1 Nude mice.

“Also recorded” adds a separate entry of the source.

Turning to “GGCTAAATCGCTCCACCAAG (chemistry not given here) [SEQ ID NO: 1, antisense oligonucleotide that hybridizes to the coding region of human ribonucleotide reductase R2 mRNA]”, the “antitumour effect (tumour weight)” value in data set [1] was “significant delay of tumour growth”. Also, the “antitumour effect (tumour volume)” value in data set [2] (SEQ ID NO:1 10 mg/kg 17 times, taxol 10 mg/kg, cisplatin 4 mg/kg once a week) was “significant delay of tumour growth”; in data set [3] (SEQ ID NO:1 10 mg/kg 17 times i.v., Gemcitabine 100 mg/kg i.v. every three days) it was “significant delay of tumour growth”; in data set [4] (SEQ ID NO:1 10 mg/kg 6 times, Hydroxyurea 250 mg/kg i.p. 10 days, Cisplatin 4 mg/kg i.v. weekly), “significant delay of tumour growth; also recorded: superior to the inhibitory effects observed with Cisplatin alone”; in data set [5] (Example 13.5, SEQ ID NO:1 10 mg/kg 15 times, Cisplatin 4 mg/kg, Taxol 20 mg/kg i.v. weekly for four weeks) it was “significant reduction of tumour weight; also recorded: superior to the inhibitory effects observed with Cisplatin”. In addition, the “tumour volume data as percentage of saline control” value in data set [2] (SK-OV-3 (ovary), Mouse CD-1) is 42%. Moreover, the “Tumour weight as % of saline control” value in data set [3] (BxPC-3 (pancreatic), Gemcitabine resistance, CD-1) amounted to 5.8%; in data set [4] (Hela S3 (cervix), hydroxyurea resistance, SCID) it was 24%; in data set [5] (CB-17/SCID) it was 37%; in data set [5] (SCID), 42%. The “antitumour effect (tumour volume, tumour weight)” value in data set [5] (Example 13.6, CB-17 SCID mice, SEQ ID NO:1 10 mg/kg every other day, Cisplatin 4 mg/kg i.v. weekly) is listed as “significant reduction of tumour weight; also recorded: superior to the inhibitory effects observed with Cisplatin”. The “Inhibition of tumour size” value with Human Lung Carcinoma (CD-1 Nude mice, Days 14 to 19 after tumour implantation) is on record as “approximately 85% in CD-1 Nude mice”. The “Inhibition of tumour weight” value in the data set on Human Lung Carcinoma (Human Lung Carcinoma) was “approximately 70%”.
